# Key:
# [1] = tested on: H-ras(Val12)-transformed rat-1 fibroblasts (rat 2.2 cells); assay: Changes in morphology of H-ras-transformed cells; format: cell-based; settings: 5 days
# Procedure: Compound 27A (denoted as BG269A in the figure) and compound 27B (denoted as BG269B in the figure) were added at 250 μM to test whether these compounds would induce reversion to a more normal phenotype as had been previously shown with microinjection of anti-Ras antibodies (see Feramisco, J. R. et al Nature 314, 639 (1985)). The H-ras transformed cells, denoted as rat 2.2 cells, were generated by transfection of rat-1 fibroblasts as described (see Seeburg, P. H., Colby, W. W., Capon, D. J., Goeddel, D. V., and Levinson, A. D. Nature 312,71 (1984)). Cells that overgrew the monolayer were extracted and plated onto agar to obtain a cell line displaying a fully transformed phenotype. Untransformed rat-1 fibroblasts and src-transformed rat-1 fibroblasts were also treated. The src-transformed cells were generated by co-transfection of rat-1 fibroblasts with pSV3.Neo.src, a vector containing the gene for src as well as the gene that confers G418 resistance, both under control of SV40 early promoters. G418-resistant cell clones that diplayed a transformed phenotype were used to generate the cell line. On day 0, cells were plated in monolayer culture at 3×10^3 cells per well (24-well plates) in 1 ml DMEM supplemented with 10% FCS, 100 U/ml penicillin, 10 μg/ml streptomycin, 2% DMSO, and 0.5 mM DTT with and without 200 μM inhibitor. On day 3, the cells were refed with the same medium. On day 5, the cells were photographed under contrast at a magnification of 100X. […] This change in morphology is remarkably similar to that seen following injection of anti-ras antibodies into ras-transformed cells (see Feramisco, J. R. et al Nature 314, 639 (1985)). Rat-1 fibroblasts transformed with the src oncogene also grew in a multilayered pattern (FIG. 6C), but this was not affected by compound 27A or compound 27B (FIG. 6D).
# [2] = tested on: src-transformed rat-1 fibroblasts; assay: Changes in morphology of src-transformed cells; format: cell-based; settings: FIG. 6C/6D
# Procedure: Compound 27A (denoted as BG269A in the figure) and compound 27B (denoted as BG269B in the figure) were added at 250 μM to test whether these compounds would induce reversion to a more normal phenotype as had been previously shown with microinjection of anti-Ras antibodies (see Feramisco, J. R. et al Nature 314, 639 (1985)). The H-ras transformed cells, denoted as rat 2.2 cells, were generated by transfection of rat-1 fibroblasts as described (see Seeburg, P. H., Colby, W. W., Capon, D. J., Goeddel, D. V., and Levinson, A. D. Nature 312,71 (1984)). Cells that overgrew the monolayer were extracted and plated onto agar to obtain a cell line displaying a fully transformed phenotype. Untransformed rat-1 fibroblasts and src-transformed rat-1 fibroblasts were also treated. The src-transformed cells were generated by co-transfection of rat-1 fibroblasts with pSV3.Neo.src, a vector containing the gene for src as well as the gene that confers G418 resistance, both under control of SV40 early promoters. G418-resistant cell clones that diplayed a transformed phenotype were used to generate the cell line. On day 0, cells were plated in monolayer culture at 3×10^3 cells per well (24-well plates) in 1 ml DMEM supplemented with 10% FCS, 100 U/ml penicillin, 10 μg/ml streptomycin, 2% DMSO, and 0.5 mM DTT with and without 200 μM inhibitor. On day 3, the cells were refed with the same medium. […]
# [3] = tested on: Ras proteins in Met18b-2 cells; assay: Incorporation of [3H]mevalonate into immunoprecipitated Ras proteins in Met18b-2 cells; format: cell-based, Chinese hamster
# Procedure: In each experiment, aliquots of the Triton X-100 fraction (300 μg protein, prepared as described above) were incubated with 1 μg anti-Ras monoclonal antibody (Oncogene Sciences, Inc.) overnight at 4° C. on a rotating platform. Immune complexes were precipitated by addition of 25 μl Protein A-agarose suspension that had been pre-coated with goat anti-rat IgG (Oncogene Sciences, Inc.) according to the manufacturer's instructions. After a 30 min incubation at 4° C., the agarose beads were pelleted by centrifugation and washed 5 times with 1 ml each of wash solution (50 mM Tris-HCl, 50 mM NaCl, 0.5% (w/v) deoxycholate, 0.5% (v/v) Nonidet P-40, and 0.1% (w/v) SDS at pH 7.5). 75 μl of 1X SDS sample buffer was added and each sample heated for 5 min at 95° C. before electrophoresis as above.
# MCF-231 cells = assay: Growth inhibition of human tumor line MCF-231; format: cell-based; settings: MCF-231, breast (human), ras transformed, read-out: % growth inhib.
# Procedure: (§1) To examine the effects of farnesyltransferase inhibition on cell growth, three cell lines (ras-transformed rat-1, src-transformed rat-1, and parental rat-1 cells) were seeded (see FIG. 7) at low density and allowed to grow for 10 days in the absence or presence of increasing concentrations of BZA-5B (compound 37). See Example 128 for description of cells. On day 0, cells were plated in monolayer culture at 2×10^3 cells per well (24-well plates) in 1 ml DMEM supplemented with 10% fetal calf serum, 100 U/ml penicillin, 100 μg/ml streptomycin, 0.5 mM DTT, 0.025% DMSO, and the indicated concentration of BZA-5B (compound 37). On days 3 and 7, cells were washed and refed with the same medium. At the time indicated in FIG. 7, cells were harvested by trypsinization and counted in a Coulter counter. Panels A, C, E show the growth rate of each cell line in the absence of inhibitor. Panels B, D, F show the inhibition of growth as a function of concentration of BZA-5B at each time point. […]
# (§2) To examine the effects of farnesyltransferase inhibition on the growth of human tumor cell lines, several such lines were treated with 25 μM BZA-5B (compound 37B) using a procedure similar to that described in Example 129 above. Cells were refed with fresh media at days 3 and 6 containing the inhibitor, and were harvested and counted as described above. […]
# HT-1080 cells = assay: Growth inhibition of human tumor line HT-1080; format: cell-based; settings: HT-1080, fibrosarcoma, ras transformed, read-out: % growth inhib.
# Procedure: as §1, §2
# HCT-116 cells = assay: Growth inhibition of human tumor line HCT-116; format: cell-based; settings: HCT-116, colon, ras transformed, read-out: % growth inhib.
# Procedure: as §1, §2
Structure (SMILES),effect on transformed phenotype (morphology) ([1]; FIG. 6A/6B),effect on cell density ([1]; FIG. 6B),effect on morphology of src-transformed cells [2],"incorporation of [3H]mevalonate into immunoprecipitated ras proteins ([3]; 50 μM, FIG. 5, lanes 7-9)","minimal effective concentration ([3]; Cricetulus griseus, FIG. 5, read-out: concentration at which inhibition of incorporation into ras proteins was readily detectable)",inhibition at 25 µM (MCF-231 cells),inhibition at 25 µM (HT-1080 cells),inhibition at 25 µM (HCT-116 cells)
"CSCC[C@H](NC(=O)CN1C(=O)C(N(C)C(=O)[C@@H](N)CS)N=C(c2ccccc2)c2ccccc21)C(=O)O (single isomer, unassigned) [27B]",reversed the transformed phenotype,grew to lower cell density,not affected,,,,,
"COC(=O)[C@H](CCSC)NC(=O)CN1C(=O)C(N(C)C(=O)[C@@H](N)CS)N=C(c2ccccc2)c2ccccc21 (single isomer, unassigned) [37B]",,,,abolished incorporation of [3H] mevalonate into immunoprecipitated ras proteins,10 µM,58%,64%,0%
